Laboratory results as given in ChEMBL document CHEMBL1201862, “PubChem BioAssay data set” (2004).
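Interpolation was linear, between the two tested concentrations surrounding the appropriate level; five concentrations were tested over 48 hours in 96-well plates. GI50 marks 50% less growth.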 Calls of active or inactive are those of the source. Rule as the data show it: active = GI50 up to about 1.1 µM and inactive = higher.

Columns and labels:
Assay in all cases: inhibition of tumour cell growth, NCI panel, 48 h
UO-31 = test system: UO-31
HT-29 = test system: HT-29
OVCAR-3 = test system: OVCAR-3
NCI/ADR-RES = test system: NCI/ADR-RES
NCI-H226 = test system: NCI-H226
CAKI-1 = test system: CAKI-1
SK-OV-3 = test system: SK-OV-3
SK-MEL-5 = test system: SK-MEL-5
HOP-62 = test system: HOP-62
SK-MEL-28 = test system: SK-MEL-28
SF-295 = test system: SF-295
HCT-15 = test system: HCT-15
K562 = test system: K562
MDA-MB-435 = test system: MDA-MB-435
HL-60 = test system: HL-60
ACHN = test system: ACHN
SK-MEL-2 = test system: SK-MEL-2
COLO 205 = test system: COLO 205
SF-539 = test system: SF-539
T47D = test system: T47D
Hs-578T = test system: Hs-578T
CCRF-CEM = test system: CCRF-CEM
HCC 2998 = test system: HCC 2998
SW-620 = test system: SW-620
RPMI-8226 = test system: RPMI-8226
SN12C = test system: SN12C
A549 = test system: A549
M14 = test system: M14
U-251 = test system: U-251
MCF7 = test system: MCF7
PC-3 = test system: PC-3
SF-268 = test system: SF-268
LOX IMVI = test system: LOX IMVI
SR = test system: SR
BT-549 = test system: BT-549
786-0 = test system: 786-0
KM12 = test system: KM12
NCI-H23 = test system: NCI-H23
HCT-116 = test system: HCT-116
NCI-H460 = test system: NCI-H460
UACC-257 = test system: UACC-257
OVCAR-4 = test system: OVCAR-4
IGROV-1 = test system: IGROV-1
MOLT-4 = test system: MOLT-4
TK-10 = test system: TK-10
SNB-19 = test system: SNB-19
RXF 393 = test system: RXF 393
OVCAR-5 = test system: OVCAR-5
MDA-MB-231 = test system: MDA-MB-231
OVCAR-8 = test system: OVCAR-8
EKVX = test system: EKVX
UACC-62 = test system: UACC-62
DU-145 = test system: DU-145
HOP-92 = test system: HOP-92
NCI-H522 = test system: NCI-H522
MDA-N = test system: MDA-N
Malme-3M = test system: Malme-3M
SNB-75 = test system: SNB-75

**Q.** Which GI50 (UO-31) does the source give for `Cc1ccc(NC(=O)C(=O)CC(=O)c2sc(Nc3c(C)cccc3C)nc2C)cc1C` here?
**A.** 81.8 µM (inactive)

**Q.** What about the GI50 (HT-29) of the same molecule?
**A.** > 100 µM (inactive)

**Q.** And the GI50 (OVCAR-3)?
**A.** > 100 µM (inactive)

**Q.** What about the GI50 (NCI/ADR-RES) of the same molecule?
**A.** > 100 µM (inactive)

**Q.** And the GI50 (NCI-H226)?
**A.** > 100 µM (inactive)

**Q.** What about the GI50 (CAKI-1) of the same molecule?
**A.** > 100 µM (inactive)

**Q.** And the GI50 (SK-OV-3)?
**A.** > 100 µM (inactive)

**Q.** And the GI50 (SK-MEL-5)?
**A.** > 100 µM (inactive)

**Q.** What about the GI50 (HOP-62) of the same molecule?
**A.** > 100 µM (inactive)

**Q.** And the GI50 (SK-MEL-28)?
**A.** > 100 µM (inactive)

**Q.** And the GI50 (SF-295)?
**A.** > 100 µM (inactive)

**Q.** What about the GI50 (HCT-15) of the same molecule?
**A.** > 100 µM

**Q.** And the GI50 (K562)?
**A.** > 100 µM (inactive)

**Q.** And the GI50 (MDA-MB-435)?
**A.** > 100 µM (inactive)

**Q.** And the GI50 (HL-60)?
**A.** 55.2 µM (inactive)

**Q.** What about the GI50 (ACHN) of the same molecule?
**A.** > 100 µM (inactive)

**Q.** What about the GI50 (SK-MEL-2) of the same molecule?
**A.** > 100 µM (inactive)

**Q.** What about the GI50 (COLO 205) of the same molecule?
**A.** > 100 µM (inactive)

**Q.** What about the GI50 (SF-539) of the same molecule?
**A.** > 100 µM (inactive)

**Q.** And the GI50 (T47D)?
**A.** > 100 µM (inactive)

**Q.** And the GI50 (Hs-578T)?
**A.** > 100 µM (inactive)

**Q.** And the GI50 (CCRF-CEM)?
**A.** > 100 µM (inactive)

**Q.** And the GI50 (HCC 2998)?
**A.** > 100 µM (inactive)

**Q.** What about the GI50 (SW-620) of the same molecule?
**A.** > 100 µM (inactive)

**Q.** And the GI50 (RPMI-8226)?
**A.** > 100 µM (inactive)

**Q.** And the GI50 (SN12C)?
**A.** > 100 µM (inactive)

**Q.** What about the GI50 (A549) of the same molecule?
**A.** > 100 µM (inactive)

**Q.** What about the GI50 (M14) of the same molecule?
**A.** > 100 µM (inactive)

**Q.** What about the GI50 (U-251) of the same molecule?
**A.** > 100 µM (inactive)

**Q.** And the GI50 (MCF7)?
**A.** > 100 µM (inactive)

**Q.** What about the GI50 (PC-3) of the same molecule?
**A.** > 100 µM (inactive)

**Q.** What about the GI50 (SF-268) of the same molecule?
**A.** > 100 µM (inactive)

**Q.** And the GI50 (LOX IMVI)?
**A.** > 100 µM (inactive)

**Q.** And the GI50 (SR)?
**A.** 37.3 µM (inactive)

**Q.** What about the GI50 (BT-549) of the same molecule?
**A.** > 100 µM (inactive)

**Q.** What about the GI50 (786-0) of the same molecule?
**A.** > 100 µM (inactive)

**Q.** And the GI50 (KM12)?
**A.** > 100 µM (inactive)

**Q.** What about the GI50 (NCI-H23) of the same molecule?
**A.** > 100 µM (inactive)

**Q.** What about the GI50 (HCT-116) of the same molecule?
**A.** > 100 µM (inactive)

**Q.** And the GI50 (NCI-H460)?
**A.** > 100 µM (inactive)

**Q.** And the GI50 (UACC-257)?
**A.** > 100 µM (inactive)

**Q.** What about the GI50 (OVCAR-4) of the same molecule?
**A.** > 100 µM (inactive)

**Q.** And the GI50 (IGROV-1)?
**A.** > 100 µM (inactive)

**Q.** What about the GI50 (MOLT-4) of the same molecule?
**A.** > 100 µM (inactive)

**Q.** What about the GI50 (TK-10) of the same molecule?
**A.** > 100 µM (inactive)

**Q.** And the GI50 (SNB-19)?
**A.** > 100 µM (inactive)

**Q.** And the GI50 (RXF 393)?
**A.** > 100 µM (inactive)

**Q.** And the GI50 (OVCAR-5)?
**A.** > 100 µM (inactive)

**Q.** What about the GI50 (MDA-MB-231) of the same molecule?
**A.** > 100 µM (inactive)

**Q.** What about the GI50 (OVCAR-8) of the same molecule?
**A.** > 100 µM (inactive)

**Q.** And the GI50 (EKVX)?
**A.** > 100 µM (inactive)

**Q.** What about the GI50 (UACC-62) of the same molecule?
**A.** > 100 µM (inactive)

**Q.** And the GI50 (DU-145)?
**A.** > 100 µM (inactive)

**Q.** What about the GI50 (HOP-92) of the same molecule?
**A.** > 100 µM (inactive)

**Q.** What about the GI50 (NCI-H522) of the same molecule?
**A.** 71.4 µM (inactive)

**Q.** What about the GI50 (MDA-N) of the same molecule?
**A.** > 100 µM (inactive)

**Q.** How did the GI50 (UO-31) turn out when `COc1ccc(/N=N/c2c(C)c(C#N)c(=S)n(C3OC(COC(C)=O)C(OC(C)=O)C(OC(C)=O)C3OC(C)=O)c2C)cc1` (stereo not drawn) was run?
**A.** > 100 µM (inactive)

**Q.** And the GI50 (HT-29)?
**A.** > 100 µM (inactive)

**Q.** What about the GI50 (OVCAR-3) of the same molecule?
**A.** > 100 µM (inactive)

**Q.** And the GI50 (NCI/ADR-RES)?
**A.** > 100 µM (inactive)

**Q.** And the GI50 (CAKI-1)?
**A.** > 100 µM (inactive)

**Q.** And the GI50 (SK-OV-3)?
**A.** 54.5 µM (inactive)

**Q.** And the GI50 (SK-MEL-5)?
**A.** > 100 µM (inactive)

**Q.** What about the GI50 (HOP-62) of the same molecule?
**A.** 64.3 µM (inactive)

**Q.** And the GI50 (SK-MEL-28)?
**A.** > 100 µM (inactive)

**Q.** And the GI50 (SF-295)?
**A.** 57.5 µM (inactive)

**Q.** What about the GI50 (K562) of the same molecule?
**A.** > 100 µM (inactive)

**Q.** What about the GI50 (MDA-MB-435) of the same molecule?
**A.** > 10 µM (inactive)

**Q.** And the GI50 (HL-60)?
**A.** > 100 µM (inactive)

**Q.** What about the GI50 (ACHN) of the same molecule?
**A.** > 100 µM (inactive)

**Q.** What about the GI50 (COLO 205) of the same molecule?
**A.** > 100 µM (inactive)

**Q.** And the GI50 (SF-539)?
**A.** > 100 µM (inactive)

**Q.** What about the GI50 (T47D) of the same molecule?
**A.** > 100 µM (inactive)

**Q.** And the GI50 (Hs-578T)?
**A.** 23.3 µM (inactive)

**Q.** And the GI50 (CCRF-CEM)?
**A.** > 100 µM (inactive)

**Q.** And the GI50 (HCC 2998)?
**A.** > 100 µM (inactive)

**Q.** And the GI50 (SW-620)?
**A.** > 100 µM (inactive)

**Q.** And the GI50 (Malme-3M)?
**A.** > 100 µM (inactive)

**Q.** And the GI50 (RPMI-8226)?
**A.** > 100 µM (inactive)

**Q.** And the GI50 (SN12C)?
**A.** > 100 µM (inactive)

**Q.** And the GI50 (A549)?
**A.** > 100 µM (inactive)

**Q.** And the GI50 (M14)?
**A.** 90.6 µM (inactive)

**Q.** And the GI50 (U-251)?
**A.** 8.09 µM (inactive)

**Q.** And the GI50 (MCF7)?
**A.** > 100 µM (inactive)

**Q.** And the GI50 (PC-3)?
**A.** > 100 µM (inactive)

**Q.** What about the GI50 (SF-268) of the same molecule?
**A.** > 100 µM (inactive)

**Q.** What about the GI50 (LOX IMVI) of the same molecule?
**A.** > 100 µM (inactive)

**Q.** What about the GI50 (SR) of the same molecule?
**A.** > 100 µM (inactive)

**Q.** And the GI50 (BT-549)?
**A.** > 100 µM (inactive)

**Q.** What about the GI50 (786-0) of the same molecule?
**A.** 22.5 µM (inactive)

**Q.** And the GI50 (KM12)?
**A.** > 100 µM (inactive)

**Q.** What about the GI50 (NCI-H23) of the same molecule?
**A.** > 100 µM (inactive)

**Q.** What about the GI50 (HCT-116) of the same molecule?
**A.** > 100 µM (inactive)

**Q.** And the GI50 (NCI-H460)?
**A.** > 100 µM (inactive)

**Q.** And the GI50 (UACC-257)?
**A.** > 100 µM (inactive)

**Q.** And the GI50 (OVCAR-4)?
**A.** > 100 µM (inactive)

**Q.** What about the GI50 (IGROV-1) of the same molecule?
**A.** > 100 µM (inactive)

**Q.** And the GI50 (MOLT-4)?
**A.** > 100 µM (inactive)

**Q.** And the GI50 (SNB-75)?
**A.** 16.1 µM (inactive)

**Q.** What about the GI50 (TK-10) of the same molecule?
**A.** > 100 µM (inactive)

**Q.** And the GI50 (SNB-19)?
**A.** > 100 µM (inactive)

**Q.** What about the GI50 (RXF 393) of the same molecule?
**A.** 62.5 µM (inactive)

**Q.** What about the GI50 (OVCAR-5) of the same molecule?
**A.** > 100 µM (inactive)

**Q.** What about the GI50 (MDA-MB-231) of the same molecule?
**A.** 21.7 µM (inactive)

**Q.** What about the GI50 (UACC-62) of the same molecule?
**A.** > 100 µM (inactive)

**Q.** And the GI50 (DU-145)?
**A.** > 100 µM (inactive)

**Q.** What about the GI50 (HOP-92) of the same molecule?
**A.** 24.6 µM (inactive)

**Q.** And the GI50 (MDA-N)?
**A.** > 100 µM (inactive)
